Laboratory results as given in US20220218714A1, “METHOD OF TREATING CANCER” (Epizyme, Inc., priority 2013, published 2022).
“Also recorded” adds a separate entry of the source.

Experiments:
Format in all cases: cell-based, human
SW982 cells = test: Adherent cell line 14-day long-term proliferation assay (CellTiter-Glo)
Experimental: (§1) 96-well plating for 7 day assay: For each adherent cell line, plated cells in a volume of 100 μL in 96-well plates, to be treated in triplicate, either in the evening (to treat with compound the following day) or in morning (to treat with compound in the evening), to allow cells to attach to plates before compound treatment.
(§2) 6-well plates to be split for 7-14 day assay: Plated 2mL of cells at the correct density in each well of the 6-well plate. Calculated the correct density from the 96-well plate growth curve by multiplying the 96-well density by 30. The factor 30 came from growth area of the 6-well plate divided by the growth area of the 96-well plate (9.5cm^2/0.32cm^2=29.7, rounded up to 30), which corresponds to 30-fold more surface area in a 6-well vs. a 96-well plate.
(§3) Day 0: Treated with compound or DMSO by removing media and adding back either […] (for 96-well plate) or 2 mL (for 6-well plate) media with the correct dilutions of compound/DMSO. Table 1 includes an example of 96-well plate map. Plates were incubated for 96 hours.
(§4) Read one 96-well plate with CellTiter-Glo®, for a Day 0 reading (media change not necessary for this plate).
(§5) Day 4: Read one 96-well plate with CellTiter-Glo® for a Day 4 reading (media change not necessary for this plate before reading). Replaced media with fresh media containing compound on Day 4 in 96-well plates and 6-well plates.
(§6) Day 7: read final 96-well plate with CellTiter-Glo®.
(§7) Counted individual wells of 6-well plates, and replated cells to initial plating density in 96-well plates, as described above.
(§8) Repeated steps for Days 0-7 for Days 7-14 of the proliferation assay.
(§9) Particularly, approximately 12 hours before compound treatment, HS-SY-II or SW982 cells were plated at the density of 24,000 cells/well and 7,500 cells/well, respectively in 6-well plates. On day 0, cells were treated with either DMSO or compound starting at 10 μmol/L and decreasing in fourfold dilutions. On day 7, the cells in 6-well plates were trypsinized, counted by TC10 automated cell counter (Bio-Rad, Richmond, Calif.) and replated at the density of 800 cells/well and 250 cells/well for HS-SY-II and SW982, respectively in 96-well plates in triplicate. The cells were allowed to adhere to the plate overnight, and treated with either DMSO or compound as on Day 0. On days 0, 7, 11, and 14, cell viability was determined by CellTiter-Glo® Luminescent Cell Viability Assay (Promega) with EnVision 2103 Multilabel Reader (Perkin-Elmer, Wellesley, Mass.). Compound/media was changed with new one on Day 4 and 11. The ratios of the measured values on Days 7, 11, and 14 to that of day 7 were used to plot proliferation from day 7 to day 14, and to calculate the IC50 values on Day 14. […]

HS-SY-II cells [1] = test: as above
Experimental: as §1, §2, §3, §4, §5, §6, §7, §8, §9

HS-SY-II cells [2] = test: Gene expression changes in vitro (RT-PCR, normalized to GAPDH); details: HS-SY-II in vitro culture
Experimental: ATF3, EGR1, CDKN2A and GAPDH expression were analyzed by using the TaqMan Gene Expression Assays (Life technologies, 4331182) and the TaqMan Probes (Hs00231069_ml, Hs00152928_ml, Hs00233365_ml, and Hs99999905_ml, respectively).

SMILES: CCN(c1cc(-c2ccc(CN3CCOCC3)cc2)cc(C(=O)NCc2c(C)cc(C)[nH]c2=O)c1C)C1CCOCC1 [Compound A]
- sensitivity (cell proliferation / viability) (SW982 cells): did not; also recorded: not sensitive
- sensitivity (cell proliferation / viability) (HS-SY-II cells [1]): high sensitivity; also recorded: highly sensitive
- ATF3 and EGR1 expression (HS-SY-II cells [2]): upregulated
- CDKN2A expression (HS-SY-II cells [2]): Dose- and time-dependent CDKN2A upregulation
